Laboratory results: ChEMBL document CHEMBL1201862, “PubChem BioAssay data set” (2004)
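48-hour exposure; five concentrations; linearly interpolated endpoints. GI50 marks 50% less growth.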 Activity calls are given as the source filed them. Cut-off read from the data, not from the text of the source: active = GI50 up to about 1.1 µM and inactive = higher.

Assays:
Test in all cases: NCI anticancer screen, dose series, 48 h
A549 = system: A549
BT-549 = system: BT-549
CCRF-CEM = system: CCRF-CEM
COLO 205 = system: COLO 205
HCT-116 = system: HCT-116
HOP-62 = system: HOP-62
HT-29 = system: HT-29
Hs-578T = system: Hs-578T
IGROV-1 = system: IGROV-1
M14 = system: M14
MCF7 = system: MCF7
MDA-MB-231 = system: MDA-MB-231
MDA-N = system: MDA-N
MOLT-4 = system: MOLT-4
NCI-H23 = system: NCI-H23
OVCAR-5 = system: OVCAR-5
RXF 393 = system: RXF 393
SK-MEL-28 = system: SK-MEL-28
SW-620 = system: SW-620
TK-10 = system: TK-10

Compound | GI50 (A549) | GI50 (BT-549) | GI50 (CCRF-CEM) | GI50 (COLO 205) | GI50 (HCT-116) | GI50 (HOP-62) | GI50 (HT-29) | GI50 (Hs-578T) | GI50 (IGROV-1) | GI50 (M14) | GI50 (MCF7) | GI50 (MDA-MB-231) | GI50 (MDA-N) | GI50 (MOLT-4) | GI50 (NCI-H23) | GI50 (OVCAR-5) | GI50 (RXF 393) | GI50 (SK-MEL-28) | GI50 (SW-620) | GI50 (TK-10)
CC(=O)O[C@H]1C(=O)[C@@]2(C)[C@H]([C@H](OC(=O)c3ccccc3)[C@]3(O)C[C@H](OC(=O)[C@H](O)[C@@H](NC(=O)c4ccoc4)c4ccccc4)C(C)=C1C3(C)C)[C@]1(OC(C)=O)CO[C@@H]1C[C@@H]2O | 0.0386 µM (active) | < 0.01 µM (active) | 0.0379 µM (active) | 0.026 µM (active) | 0.0147 µM (active) | 0.212 µM (active) | < 0.01 µM (active) | 0.0246 µM (active) | 0.016 µM (active) | 0.09 µM (active) | 0.0265 µM (active) | 0.0434 µM (active) | 0.00361 µM (active) | 0.0332 µM (active) | 0.0261 µM (active) | 0.0256 µM (active) | < 0.01 µM (active) | 0.0532 µM (active) | 0.021 µM (active) | 0.0861 µM (active)
Cc1ccc(/C=C2\N=C(N3CCCC(CO)C3)NC2=O)cc1 (stereo not given) | > 100 µM (inactive) | > 100 µM (inactive) | > 100 µM (inactive) | > 100 µM (inactive) | > 100 µM (inactive) | > 100 µM (inactive) | > 100 µM (inactive) | > 100 µM (inactive) | > 100 µM (inactive) | > 100 µM (inactive) | > 100 µM (inactive) | > 100 µM (inactive) | > 100 µM (inactive) | > 100 µM (inactive) | > 100 µM (inactive) | > 100 µM (inactive) | > 100 µM (inactive) | > 100 µM (inactive) | > 100 µM (inactive) | > 100 µM (inactive)
COC12C=CC(CC1)C(C)(C)C2=O (stereo not given) | > 100 µM (inactive) | > 100 µM (inactive) | > 100 µM (inactive) | > 100 µM (inactive) | > 100 µM (inactive) | > 100 µM (inactive) | > 100 µM (inactive) | > 100 µM (inactive) | > 100 µM (inactive) | > 100 µM (inactive) | > 100 µM (inactive) | > 100 µM (inactive) | > 100 µM (inactive) | > 100 µM (inactive) | > 100 µM (inactive) | > 100 µM (inactive) | > 100 µM (inactive) | > 100 µM (inactive) | > 100 µM (inactive) | > 100 µM (inactive)
OCCCNc1[nH]cnc2nncc1-2 | > 100 µM (inactive) | > 100 µM (inactive) | > 100 µM (inactive) | > 100 µM (inactive) | > 100 µM (inactive) | > 100 µM (inactive) | > 100 µM (inactive) | > 100 µM (inactive) | > 100 µM (inactive) | > 100 µM (inactive) | > 100 µM (inactive) | > 100 µM (inactive) | > 100 µM (inactive) | > 100 µM (inactive) | > 100 µM (inactive) | > 100 µM (inactive) | > 100 µM (inactive) | > 100 µM (inactive) | > 100 µM (inactive) | > 100 µM (inactive)
C=CCc1cc(C(Cc2ccccc2)NC(C)C)cc(OCc2ccccc2)c1OCc1ccccc1 (stereo not given) | 16.7 µM (inactive) | 17.3 µM (inactive) | 15.9 µM (inactive) | 17.3 µM (inactive) | 16.4 µM (inactive) | 15.9 µM (inactive) | 15.1 µM (inactive) | 18 µM (inactive) | 15.8 µM (inactive) | 15.3 µM (inactive) | 17.3 µM (inactive) | 15 µM (inactive) | 13.2 µM (inactive) | 10.7 µM (inactive) | 18.8 µM (inactive) | 19.1 µM (inactive) | 14.4 µM (inactive) | 16.4 µM (inactive) | 18.2 µM (inactive) | 17.1 µM (inactive)
CN(C)CCNS(=O)(=O)c1ccc(N)cc1 | > 100 µM (inactive) | > 100 µM (inactive) | > 100 µM (inactive) | > 100 µM (inactive) | > 100 µM (inactive) | 18.5 µM (inactive) | > 100 µM (inactive) | > 100 µM (inactive) | > 100 µM (inactive) | > 100 µM (inactive) | > 100 µM (inactive) | > 100 µM (inactive) | > 100 µM (inactive) | > 100 µM (inactive) | > 100 µM (inactive) | > 100 µM (inactive) | > 100 µM (inactive) | > 100 µM (inactive) | > 100 µM (inactive) | > 100 µM (inactive)
N#Cc1c(-c2ccccc2)[nH]c2ccc(Cl)cc2c1=O | 13 µM (inactive) | 22.5 µM (inactive) | > 100 µM (inactive) | > 100 µM (inactive) | 81.8 µM (inactive) | 25.8 µM (inactive) | > 100 µM (inactive) | 34.8 µM (inactive) | 63.1 µM (inactive) | > 100 µM (inactive) | > 100 µM (inactive) | 21.7 µM (inactive) | > 100 µM (inactive) | > 100 µM (inactive) | 92.5 µM (inactive) | > 100 µM (inactive) | 20.7 µM (inactive) | > 100 µM (inactive) | > 100 µM (inactive) | 29.7 µM (inactive)
COC(=O)c1ccc(/C=C2\CCc3ccccc3C2=O)cc1 | > 100 µM (inactive) | > 100 µM (inactive) | > 100 µM (inactive) | > 100 µM (inactive) | > 100 µM (inactive) | > 100 µM (inactive) | > 100 µM (inactive) | > 100 µM (inactive) | > 100 µM (inactive) | > 100 µM (inactive) | > 100 µM (inactive) | > 100 µM (inactive) | > 100 µM (inactive) | > 100 µM (inactive) | > 100 µM (inactive) | > 100 µM (inactive) | > 100 µM (inactive) | > 100 µM (inactive) | > 100 µM (inactive) | > 100 µM (inactive)
Cc1c(-c2ccccc2)n[nH]c1NC1(C)C(=O)N(/N=C/c2ccccc2)N=C1c1ccccc1 (stereo not given) | 7.4 µM (inactive) | > 100 µM (inactive) | 25.9 µM (inactive) | > 30.5 µM (inactive) | > 59.2 µM (inactive) | > 100 µM (inactive) | > 100 µM (inactive) | > 100 µM (inactive) | > 100 µM (inactive) | > 87.3 µM (inactive) | 4.78 µM (inactive) | > 100 µM (inactive) | 97.5 µM (inactive) | 10.2 µM (inactive) | > 100 µM (inactive) | > 100 µM (inactive) | > 29.8 µM (inactive) | > 100 µM (inactive) | > 93.3 µM (inactive) | > 100 µM (inactive)
CCOC(=O)C1(C(=O)OCC)[C@@H](c2ccccc2)C2=NO[C@@H]3CCC[C@H]1[C@H]23 | 48.4 µM (inactive) | 42.7 µM (inactive) | 23.8 µM (inactive) | 29 µM (inactive) | 45.5 µM (inactive) | 43.6 µM (inactive) | 45.4 µM (inactive) | > 100 µM (inactive) | 50.4 µM (inactive) | 31.9 µM (inactive) | 41.7 µM (inactive) | > 100 µM (inactive) | 24.5 µM (inactive) | 55.7 µM (inactive) | 42.5 µM (inactive) | > 100 µM (inactive) | 48.4 µM (inactive) | > 100 µM (inactive) | 43.8 µM (inactive) | 49.4 µM (inactive)
